Non-standard residues stand in square brackets, D forms with d. Residues, ends and D or L forms follow the SMILES beside them. No end group written: not given here.
How the values were obtained:
[1] = system: Growth Hormone Secretagoge Receptor; test: Test cell + FUS1p-lacZ plasmid, GHSR; type: cell-based, sheep; details: CY18879, CP6416, saturating or near saturating ligand
Experimental: (§1) Detection of LacZ activity in the detector cells (data shown in Table 6) was performed essentially as described in the experimental protocol of Example 1, with the exception that 20 microliters of a solution containing 0.5 mM fluorescein di-β-D-galactopyranoside (FDG), 125 mM PIPES pH 7.2, 1.25% Triton X-100 was added instead of the 20 microliters of CPRG solution utilized in Example 1. Following addition of the FDG solution, the reaction was incubated for 30 minutes at 37° C. After stopping the reaction with 20 microliters of 1 M Na2CO3, the fluorescence was determined utilizing a 96-well plate reader with an excitation wavelength of 485 nm and an emission wavelength of 535 nm.

[2] = system: Growth Hormone Secretagoge Receptor; test: Test cell + detector cell (FDG), GHSR; type: cell-based, sheep; details: CY18879, CP6416, saturating or near saturating ligand
Experimental: (§2) A strain of test cells was established by transforming (transfecting) a culture of S. cerevisiae yeast cells with the human1a (ML1a) receptor gene. Cultures of MATα test cells containing a heterologous ML1a receptor (CY1 3858) and MATa detector cells (a CY19 related strain containing the CP1212 FUS1p-LacZ plasmid) were grown overnight to stationary phase in media selective for the maintenance of the plasmids (SCD-leu media for the MATα cells and SCD-ura for the MATα cells). The cells were diluted with additional medium and permitted to recover from stationary phase for several hours. After determination of the optical density of the cultures, the cells were harvested by centrifugation, were washed once in non-selective synthetic medium, and were resuspended in non-selective medium at an approximate optical density (measured at 600 nm) of 0.4. […] The final volume of cells, culture medium and ligand was about 100 microliters. The cells were mixed using a plate-mixer and incubated at 30° C. […] The reaction was then stopped by the addition of 60 microliters 1 M sodium carbonate, and the absorbance at a wavelength of 575 nm was determined using a plate reader. […]

R-VIP-1 = test: Test cell + FUS1p-lacZ plasmid, R-VIP-1; type: cell-based, Rat; details: CY18636, CP4110, saturating or near saturating ligand
Experimental: as §1

R-VIP-1 Rat = test: Test cell + detector cell (FDG), R-VIP-1; type: cell-based; details: CY18636, CP4110, saturating or near saturating ligand
Experimental: as §2

melatonin ML1a receptor = target: T1, melatonin ML1a receptor (Homo sapiens, UniProt P48039); test: Two cell assay: MATα test cells with ML1a receptor (CY13858) + MATa FUS1p-LacZ detector cells, β-galactosidase (CPRG); type: cell-based
T1 construct: expressed in transfected cells; host or cells: S. cerevisiae MATα test cells (CY13858; CY18596, MFα1-deleted), plasmid CP2695
T1 sequence (P48039 whole entry): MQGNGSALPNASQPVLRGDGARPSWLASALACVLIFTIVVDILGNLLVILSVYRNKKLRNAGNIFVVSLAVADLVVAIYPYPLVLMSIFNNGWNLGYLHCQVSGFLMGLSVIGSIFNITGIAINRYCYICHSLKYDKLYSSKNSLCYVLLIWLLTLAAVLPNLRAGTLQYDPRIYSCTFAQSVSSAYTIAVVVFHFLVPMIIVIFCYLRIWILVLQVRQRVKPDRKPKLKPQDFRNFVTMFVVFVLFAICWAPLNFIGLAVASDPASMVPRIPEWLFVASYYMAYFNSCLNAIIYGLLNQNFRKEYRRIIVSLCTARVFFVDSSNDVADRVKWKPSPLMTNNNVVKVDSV
Text: Binding of cognate ligand to the heterologous receptor in the test cell activates the receptor, causing a signal to be transduced through the pheromone response pathway, ultimately resulting in the secretion of α-factor from the cell. Specific receptors at the surface of the detector cells bind to the secreted α-factor and are activated by it, resulting in the transduction of a signal through the pheromone response pathway in these cells, and activating the transcription of the lacZ gene. The activity of the β-galactosidase expressed from this lacZ gene may be determined and thereby enables a determination of the activity of the pheromone response pathway in the first, test cells.
A strain of test cells was established by transforming (transfecting) a culture of S. cerevisiae yeast cells with the human1a (ML1a) receptor gene. […] After determination of the optical density of the cultures, the cells were harvested by centrifugation, were washed once in non-selective synthetic medium, and were resuspended in non-selective medium at an approximate optical density (measured at 600 nm) of 0.4. […] The reaction was then stopped by the addition of 60 microliters 1 M sodium carbonate, and the absorbance at a wavelength of 575 nm was determined using a plate reader.

ML1a melatonin receptor = target: T2, ML1a melatonin receptor (Homo sapiens, UniProt P48039); test: Two cell assay: MFα1-deleted MATα test cells with ML1a receptor (CY18596) + MATa detector cells, β-galactosidase (CPRG); type: cell-based; details: MFα1-deleted test cells expressing ML1a receptor
T2 construct: expressed in transfected cells; host or cells: S. cerevisiae MATα test cells (CY13858; CY18596, MFα1-deleted), plasmid CP2695
T2 sequence (P48039 whole entry): as above
Experimental: (§3) Cultures of MATα test cells containing a heterologous ML1a receptor (CY1 3858) and MATa detector cells (a CY19 related strain containing the CP1212 FUS1p-LacZ plasmid) were grown overnight to stationary phase in media selective for the maintenance of the plasmids (SCD-leu media for the MATα cells and SCD-ura for the MATα cells). The cells were diluted with additional medium and permitted to recover from stationary phase for several hours. After determination of the optical density of the cultures, the cells were harvested by centrifugation, were washed once in non-selective synthetic medium, and were resuspended in non-selective medium at an approximate optical density (measured at 600 nm) of 0.4. […] The final volume of cells, culture medium and ligand was about 100 microliters. The cells were mixed using a plate-mixer and incubated at 30° C. […] The reaction was then stopped by the addition of 60 microliters 1 M sodium carbonate, and the absorbance at a wavelength of 575 nm was determined using a plate reader.
Using the experimental protocol described in Example 1, MATα test cells lacking the MFα1 gene and containing a plasmid encoding the ML1a receptor (CY18596) or a mock control plasmid (CY18594) were mixed with an equal number of MATa detector cells having a FUS1-LacZ plasmid. […]

[3] = system: MATα test cells lacking the ML1a receptor; test: Two cell assay: MFα1-deleted MATα test cells with mock plasmid (CY18594) + MATa detector cells, β-galactosidase (CPRG); type: cell-based, S. cerevisiae; details: in the presence of melatonin
Experimental: as §3

Bradykinin 2 Receptor [4] = target: T3, Bradykinin 2 Receptor (Homo sapiens, UniProt P30411); test: Test cell + FUS1p-lacZ plasmid, BK2; type: cell-based; details: CY18778, CP1930, saturating or near saturating ligand
T3 construct: expressed in transfected cells; host or cells: S. cerevisiae MATα test cells, plasmid CP1930
T3 sequence (P30411 1-391): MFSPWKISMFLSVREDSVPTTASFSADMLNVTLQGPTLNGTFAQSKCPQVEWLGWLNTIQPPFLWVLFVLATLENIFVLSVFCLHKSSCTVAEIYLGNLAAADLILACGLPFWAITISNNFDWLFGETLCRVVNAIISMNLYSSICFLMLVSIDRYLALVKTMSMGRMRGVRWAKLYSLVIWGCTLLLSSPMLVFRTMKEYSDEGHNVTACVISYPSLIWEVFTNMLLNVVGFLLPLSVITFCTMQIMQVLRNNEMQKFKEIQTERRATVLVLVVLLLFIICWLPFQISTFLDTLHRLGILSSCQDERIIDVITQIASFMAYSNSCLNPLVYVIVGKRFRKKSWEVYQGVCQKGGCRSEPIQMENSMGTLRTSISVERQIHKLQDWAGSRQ
Experimental: as §1

Bradykinin 2 Receptor [5] = target: T3, Bradykinin 2 Receptor; test: Test cell + detector cell (FDG), BK2; type: cell-based; details: CY18778, CP1930, saturating or near saturating ligand
Experimental: as §2

## C[C@H](NC(=O)[C@@H](Cc1c[nH]c2ccccc12)NC(=O)[C@@H](N)Cc1c[nH]cn1)C(=O)N[C@@H](Cc1c[nH]c2ccccc12)C(=O)N[C@H](Cc1ccccc1)C(=O)N[C@@H](CCCCN)C(N)=O [GHRP-6] (H-H[dW]AW[dF]K-NH2)
[1]
  Fold induction, Test Cell + FUS1p-lacZ plasmid: 9 fold
[2]
  Fold induction, Test cell + Detector Cell: 4 fold

## NC(=O)CC[C@@H]1NC(=O)[C@H](Cc2ccccc2)NC(=O)[C@H](Cc2ccc(O)cc2)NC(=O)[C@@H](N)CSSC[C@@H](C(=O)N2CCC[C@H]2C(=O)N[C@@H](CCCN=C(N)N)C(=O)NCC(N)=O)NC(=O)[C@H](CC(N)=O)NC1=O [Vasopressin]
R-VIP-1
  Fold induction, Test Cell + FUS1p-lacZ plasmid: 20 fold
R-VIP-1 Rat
  Fold induction, Test cell + Detector Cell: 8 fold

## COc1ccc2[nH]cc(CCNC(C)=O)c2c1 [melatonin]
Melatonin ML1a receptor; in the presence of melatonin, no ligand approximately 1.1 units
  β-galactosidase activity in the detector cells: approximately 1.8 units
Melatonin ML1a receptor; melatonin versus no ligand
  induction in β-galactosidase activity: approximately 1.6 fold
ML1a melatonin receptor; in the presence of melatonin
  β-galactosidase activity: approximately 2.1 units
ML1a melatonin receptor; melatonin versus no ligand
  increase in β-galactosidase activity: ~5.2 fold
[3]
  α-factor secretion by test cells as detected by detector cells: did not secrete any additional α-factor

## RPPGFSPFR [Bradykinin]
Bradykinin 2 Receptor [4]
  Fold induction, Test Cell + FUS1p-lacZ plasmid: 101 fold
Bradykinin 2 Receptor [5]
  Fold induction, Test cell + Detector Cell: 84 fold

Source: US7090991B2 (priority 1999, dated 2006)
